Several values for one entry are separate records, joined by “and”; a condition that tells them apart may be missing. Equal entries are not always repeated.
Legend:
[1] = tested on: human BM CD34+ cells; assay: CFU-GEMM from 300 cGy-irradiated human BM CD34+ cells; assay type: cell-based
Procedure: CFC assays (colony-forming unit-granulocyte monocyte), burst-forming unit-erythroid, and CFU-GEMM were performed using MethoCult GF M3434 (Stemcell Technologies)[6]. For all in vitro assays, BM CD34^−KSL cells, KSL cells, and Lin^− cells were cultured in TSF media (IMDM, 10% FBS, 1% pen-strep, 20 ng/mL recombinant mouse TPO, 125 ng/mL recombinant mouse SCF, 50 ng/mL recombinant mouse Flt3 ligand). Recombinant mouse SCF, Flt3 ligand, and TPO were purchased from R&D Systems. For competitive repopulation assays, BM cells were isolated from donor 10–12-week-old female CD45.2^+ mice. Recipient 10-week-old female CD45.1^+ B6.SJL mice were irradiated with 950 cGy TBI using a Cs137 irradiator and donor BM cells were administered via tail vein injection along with a competing dose of 1 × 10^5 non-irradiated host BM cells. Multilineage donor hematopoietic cell engraftment was measured in the PB by flow cytometry.
Human BM mononuclear cells were purchased from AllCells. Cryopreserved human BM cells were recovered in IMDM + 10% FBS + 1% penicillin–streptomycin and then positively selected for CD34^+ stem/progenitor cells by using CD34 MicroBead Kit (Miltenyi Biotec, #130-046-702, 1:5). […]

[2] = biological target: T1, TCPTP (T-Cell Protein-Tyrosine Phosphatase) (Homo sapiens, UniProt P17706); assay: PhosphataseProfiler screen: TCPTP; assay type: biochemical; settings: replicates
T1 construct: purchased Eurofins Pharma Discovery Services UK
T1 sequence (P17706 whole entry, species assumed): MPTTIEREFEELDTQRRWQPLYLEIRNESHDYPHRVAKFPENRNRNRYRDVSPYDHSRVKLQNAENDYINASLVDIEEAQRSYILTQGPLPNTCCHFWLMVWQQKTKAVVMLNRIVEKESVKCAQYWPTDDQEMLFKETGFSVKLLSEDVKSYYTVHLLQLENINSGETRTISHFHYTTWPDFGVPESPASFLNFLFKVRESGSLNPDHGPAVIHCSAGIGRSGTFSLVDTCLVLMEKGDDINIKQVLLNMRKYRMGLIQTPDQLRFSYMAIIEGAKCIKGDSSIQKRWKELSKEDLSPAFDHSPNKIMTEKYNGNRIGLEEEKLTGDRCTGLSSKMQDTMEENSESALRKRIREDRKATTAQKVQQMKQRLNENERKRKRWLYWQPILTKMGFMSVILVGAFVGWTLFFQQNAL
Procedure: (§1) Compound DJ001 was evaluated in a PhosphataseProfiler™ screen at 10 μM and 1 μM (2.7 μg/mL and 0.27 μg/mL) concentrations at Eurofins Pharma Discovery Services UK (Study number UK022-0004033) against a panel of 21 Phosphatases. In each experiment, the respective reference antagonist/agonist was tested directly with DJ001 and the data were compared with historical values determined at Eurofins. DJ001 compound inhibition was calculated as percentage inhibition of the enzymatic activity compared with control.

[3] = tested on: BM cells from irradiated CD45.2+ mice in CD45.1+ recipient mice; assay: HSC competitive repopulation assay; assay type: in vivo, mouse
Procedure: Femurs and tibiae were collected from killed C57BL/6 or Ptprs^−/− mice and flushed with IMDM containing 10% FBS and 1% penicillin–streptomycin for BM cells. PB was collected through sub-mandibular puncture. Cells were filtered through a 40 μM strainer and then treated with ACK lysis buffer (Sigma Aldrich) before antibody staining for flow cytometry. For KSL and CD150^+CD48^−KSL cell analysis, BM cells were stained with allophycocyanin (APC)-and Cy7-conjugated anti-mouse Sca1 (BD Biosciences, #560654, 1:100), phycoerythrin (PE)-conjugated anti-mouse c-kit (BD Biosciences, #553355, 1:100), V450 lineage cocktail (BD Biosciences, 561301, 1:10), Alexa Fluor 488-conjugated anti-mouse CD48 (BioLegend, #103414, 1:100), and Alexa Fluor 647-conjugated anti-mouse CD150 (Biolegend, #115918, 1:100) antibodies. […]
CFC assays (colony-forming unit-granulocyte monocyte), burst-forming unit-erythroid, and CFU-GEMM were performed using MethoCult GF M3434 (Stemcell Technologies)[6]. […] Multilineage donor hematopoietic cell engraftment was measured in the PB by flow cytometry.

[4] = tested on: BCL-XL in BM KSL cells; assay: BCL-XL protein intracellular flow cytometry of BM KSL cells; assay type: cell-based, mouse
Procedure: Intracellular flow cytometric analysis was performed on irradiated (300 cGy) or non-irradiated, sorted KSL cells after treatment with 1 μg/mL DJ001 or control (equal volumes of DMSO) for 24 h. At 24 h after irradiation, cells were fixed with 4% PFA for 10 min, followed by permeabilization using 0.25% saponin in PBS. Cells were washed again and stained with antibody at the recommended concentrations for 30 min at RT. Intracellular antibodies and phospho-flow antibodies used were as follows: FITC-conjugated anti-BCL-XL (Abcam, #26148, 1:100), active RAC1-GTP antibody (NewEast Biosciences, #26903, 1:100) and anti-PAK1 (phospho S144) + PAK2 (phospho S141) + PAK3 (phospho S154) antibody (Abcam, #40795, 1:100), and FITC-conjugated goat anti-rabbit IgG H&L (Abcam, #97050, 1:200).

[5] = biological target: T2, PTPβ (Protein Tyrosine Phosphatase Receptor beta) (Homo sapiens, UniProt P23467); assay: PhosphataseProfiler screen: PTPβ; assay type: biochemical; settings: replicates
T2 construct: purchased Eurofins Pharma Discovery Services UK
T2 sequence (P23467 23-1997): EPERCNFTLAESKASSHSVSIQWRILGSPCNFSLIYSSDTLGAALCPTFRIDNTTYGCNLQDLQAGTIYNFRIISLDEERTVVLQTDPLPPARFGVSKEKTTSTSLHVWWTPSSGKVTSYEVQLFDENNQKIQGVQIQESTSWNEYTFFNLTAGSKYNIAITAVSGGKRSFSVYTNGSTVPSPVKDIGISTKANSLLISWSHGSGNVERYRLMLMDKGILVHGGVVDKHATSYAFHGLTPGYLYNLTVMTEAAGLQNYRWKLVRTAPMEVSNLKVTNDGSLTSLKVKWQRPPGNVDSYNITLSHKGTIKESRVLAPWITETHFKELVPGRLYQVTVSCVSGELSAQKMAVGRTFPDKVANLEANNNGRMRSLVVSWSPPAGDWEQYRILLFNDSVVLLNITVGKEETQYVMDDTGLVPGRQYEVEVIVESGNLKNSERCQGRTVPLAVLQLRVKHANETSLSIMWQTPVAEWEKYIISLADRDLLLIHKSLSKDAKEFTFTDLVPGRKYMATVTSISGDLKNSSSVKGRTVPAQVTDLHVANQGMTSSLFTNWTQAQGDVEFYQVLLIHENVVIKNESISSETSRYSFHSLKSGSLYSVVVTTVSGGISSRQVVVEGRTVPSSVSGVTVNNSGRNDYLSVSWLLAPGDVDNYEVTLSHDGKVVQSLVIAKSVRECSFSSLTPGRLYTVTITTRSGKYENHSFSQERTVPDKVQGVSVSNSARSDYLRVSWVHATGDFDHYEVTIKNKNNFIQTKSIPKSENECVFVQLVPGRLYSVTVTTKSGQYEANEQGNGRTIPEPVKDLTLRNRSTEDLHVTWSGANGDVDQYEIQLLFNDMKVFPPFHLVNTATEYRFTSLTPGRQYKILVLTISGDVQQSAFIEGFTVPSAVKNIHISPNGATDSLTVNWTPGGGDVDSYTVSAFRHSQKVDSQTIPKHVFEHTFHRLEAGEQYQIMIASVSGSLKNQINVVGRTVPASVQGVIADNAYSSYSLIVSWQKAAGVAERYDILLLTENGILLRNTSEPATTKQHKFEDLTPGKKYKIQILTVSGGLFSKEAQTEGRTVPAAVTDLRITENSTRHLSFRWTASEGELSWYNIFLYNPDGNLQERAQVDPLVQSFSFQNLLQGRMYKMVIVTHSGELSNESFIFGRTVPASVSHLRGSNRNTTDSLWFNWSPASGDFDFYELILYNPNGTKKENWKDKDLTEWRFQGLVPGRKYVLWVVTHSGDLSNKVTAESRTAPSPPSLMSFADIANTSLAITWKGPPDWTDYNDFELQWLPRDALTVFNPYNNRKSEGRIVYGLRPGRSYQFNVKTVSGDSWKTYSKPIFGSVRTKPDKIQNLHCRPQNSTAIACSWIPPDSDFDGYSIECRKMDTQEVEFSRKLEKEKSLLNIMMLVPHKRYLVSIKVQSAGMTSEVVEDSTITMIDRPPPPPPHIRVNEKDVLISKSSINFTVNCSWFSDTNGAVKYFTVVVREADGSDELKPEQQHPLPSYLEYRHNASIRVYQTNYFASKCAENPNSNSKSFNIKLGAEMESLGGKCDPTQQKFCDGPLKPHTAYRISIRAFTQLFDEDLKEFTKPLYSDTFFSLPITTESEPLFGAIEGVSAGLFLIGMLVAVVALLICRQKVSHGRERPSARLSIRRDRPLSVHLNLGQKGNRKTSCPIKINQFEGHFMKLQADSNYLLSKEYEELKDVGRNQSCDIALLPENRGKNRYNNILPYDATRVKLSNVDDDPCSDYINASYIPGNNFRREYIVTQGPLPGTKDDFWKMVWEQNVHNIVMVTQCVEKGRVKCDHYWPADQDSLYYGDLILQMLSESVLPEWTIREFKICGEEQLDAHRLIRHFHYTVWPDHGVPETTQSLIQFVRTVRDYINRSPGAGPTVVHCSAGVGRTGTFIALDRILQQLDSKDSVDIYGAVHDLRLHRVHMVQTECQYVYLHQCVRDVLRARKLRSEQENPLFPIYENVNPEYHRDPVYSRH
Procedure: as §1

SMILES: O=C(/C=C\Nc1cccc([N+](=O)[O-])c1)c1ccccc1 [DJ001, (Z)-3-((3-nitrophenyl)amino)-1-phenylprop-2-en-1-one]
- Figure 5b: CFU-GEMM ([1]; 300 cGy-irradiated human BM CD34+ cells, replicates): 8 and 13 and 15 and 22 and 19 and 14
- recovery of multipotent CFU-GEMMs ([1]; 72 h following 300 cGy irradiation of human BM CD34+ cells): increased the recovery of multipotent CFU-GEMMs
- Supplementary Figure 1: TCPTP activity ([2]; 2.7 μg/mL DJ001): 91 and 103 and 88
- Supplementary Figure 1: TCPTP activity ([2]; 0.27 g/mL DJ001): 97 and 96 and 99
- percentages of donor myeloid cells, B cells and T cells in PB vs control ([3]; 20 weeks post transplant): significantly increased percentages
- donor hematopoietic reconstitution over time compared with controls ([3]; donors: 750 cGy, 5 mg/kg DJ001 daily, BM at day +10): significantly increased donor hematopoietic reconstitution
- BCL-XL protein levels ([4]; 300 cGy-irradiated BM KSL cells): increased
- Figure 3h: BCL-XL protein in BM KSL cells ([4]; irradiated cells, replicates): 17.43 and 16.61 and 16.35 and 15.49 and 16.56 and 12.16
- Supplementary Figure 1: PTP activity ([5]; 2.7 μg/mL DJ001): 92 and 79 and 96
- Supplementary Figure 1: PTP activity ([5]; 0.27 g/mL DJ001): 98 and 91 and 84

— paper PMC6694155, “PTPσ inhibitors promote hematopoietic stem cell regeneration” (Nature Communications, 2019)
